Experimental data: ChEMBL document CHEMBL4229345, “Inhibition of trypanosome alternative oxidase without its N-terminal mitochondrial targeting signal (ΔMTS-TAO) by cationic and non-cationic 4-hydroxybenzoate and 4-alkoxybenzaldehyde derivatives active against T. brucei and T. congolense” (Eur J Med Chem, 2018)
pEC50, pIC50, pKi: −log10 of the molar value. In brackets after ≈: the same amount, converted by molar mass. Activity calls are given as the source filed them. No cut-off for these calls is given here.

Columns and labels:
[1] = test system: Trypanosoma brucei brucei; assay: Resistance factor, ratio of EC50 for bloodstream trypomastigote stage of Trypanosoma brucei brucei with AQP2/3-dd knock out to EC50 for bloodstream trypomastigote stage of wild-type Trypanosoma brucei brucei Lister 427; type: functional
[2] = test system: Trypanosoma brucei brucei; assay: Resistance factor, ratio of EC50 for bloodstream trypomastigote stage of Trypanosoma brucei brucei AQP triple knock out to EC50 for bloodstream trypomastigote stage of wild-type Trypanosoma brucei brucei Lister 427; type: functional
[3] = Cytotoxicity against HFF cells assessed as reduction in cell viability after 30 hrs by resazurin-based assay; conditions: human
[4] = Drug metabolism in human liver S9 fraction assessed as UGT mediated compound hydrolysis by measuring parent compound remaining at 5 uM measured after 30 mins in presence of UDPGA by RP-HPLC analysis; type: ADME, subcellular; conditions: read-out: Stability
[5] = test system: Trypanosoma brucei brucei; assay: Anti-parasitic activity against bloodstream trypomastigote stage of wild-type Trypanosoma brucei brucei Lister 427 after 48 hrs by resazurin-based assay; type: functional, organism-based; conditions: Lister 427, 48 h
[6] = Drug metabolism in human liver S9 fraction assessed as UGT mediated compound hydrolysis by measuring parent compound remaining at 5 uM measured immediately in presence of UDPGA by RP-HPLC analysis; type: ADME, subcellular; conditions: read-out: Stability
[7] = Drug metabolism in human liver S9 fraction assessed as UGT mediated compound hydrolysis by measuring parent compound remaining at 5 uM measured after 60 mins in presence of UDPGA by RP-HPLC analysis; type: ADME, subcellular; conditions: read-out: Stability
[8] = Inhibition of recombinant N-terminal His6 tagged SUMO-fused Trypanosoma brucei brucei TC221 TAO MTS deletion mutant expressed in Escherichia coli FN102 preincubated for 2 mins followed by ubiquinol-1 addition measured over 2 mins by double beam-dual wavelength UV-spectrophotometry
[9] = Drug metabolism in human liver S9 fraction assessed as CYP450 mediated compound hydrolysis by measuring parent compound remaining at 5 uM measured after 15 mins in presence of NADPH by RP-HPLC analysis; type: ADME, subcellular; conditions: read-out: Stability
[10] = Drug metabolism in human liver S9 fraction assessed as CYP450 mediated compound hydrolysis by measuring parent compound remaining at 5 uM measured after 30 mins in presence of NADPH by RP-HPLC analysis; type: ADME, subcellular; conditions: read-out: Stability
[11] = Selectivity index, ratio of CC50 for HFF cells to EC50 for bloodstream form of Trypanosoma congolense IL3000; type: toxicity; conditions: human, read-out: Ratio CC50/EC50
[12] = Stability in horse serum assessed as compound hydrolysis after 24 hrs by LC/MS analysis; type: ADME, cell-free, Equus caballus; conditions: read-out: Drug degradation
[13] = Drug metabolism in human liver microsomes assessed as CYP450 mediated compound hydrolysis by measuring parent compound remaining at 5 uM measured after 15 mins in presence of NADPH by RP-HPLC analysis; type: ADME; conditions: read-out: Stability
[14] = Drug metabolism in human liver microsomes assessed as CYP450 mediated compound hydrolysis by measuring parent compound remaining at 5 uM measured after 60 mins in presence of NADPH by RP-HPLC analysis; type: ADME; conditions: read-out: Stability
[15] = Drug metabolism in human liver microsomes assessed as CYP450 mediated compound hydrolysis by measuring parent compound remaining at 5 uM measured after 120 mins in presence of NADPH by RP-HPLC analysis; type: ADME; conditions: read-out: Stability
[16] = Drug metabolism in human liver S9 fraction assessed as UGT mediated compound hydrolysis by measuring parent compound remaining at 5 uM measured after 15 mins in presence of UDPGA by RP-HPLC analysis; type: ADME, subcellular; conditions: read-out: Stability
[17] = test system: Trypanosoma brucei; assay: Anti-parasitic activity against bloodstream trypomastigote stage of pentamidine/diminazene/melaminophenyl arsenical resistant Trypanosoma brucei B48 after 48 hrs by resazurin-based assay; type: functional, organism-based; conditions: B48, 48 h
[18] = test system: Trypanosoma brucei rhodesiense; assay: (§1) In vivo anti-parasitic activity against luciferase tagged Trypanosoma brucei rhodesiense STIB900 infected in NMRI mouse assessed as cured mouse at 10 mg/kg, ip for 4 consecutive days starting at day 3 post infection; type: functional, organism-based
[19] = Drug metabolism in human liver microsomes assessed as CYP450 mediated compound hydrolysis by measuring parent compound remaining at 5 uM measured after 30 mins in presence of NADPH by RP-HPLC analysis; type: ADME; conditions: read-out: Stability
[20] = test system: Trypanosoma brucei brucei; assay: Potency index, ratio of diminazene EC50 to test compound EC50 for anti-parasitic activity against bloodstream trypomastigote stage of wild-type Trypanosoma brucei brucei Lister 427; type: functional
[21] = Drug metabolism in human liver S9 fraction assessed as CYP450 mediated compound hydrolysis by measuring parent compound remaining at 5 uM measured after 60 mins in presence of NADPH by RP-HPLC analysis; type: ADME, subcellular; conditions: read-out: Stability
[22] = Drug metabolism in human liver S9 fraction assessed as CYP450 mediated compound hydrolysis by measuring parent compound remaining at 5 uM measured after 120 mins in presence of NADPH by RP-HPLC analysis; type: ADME, subcellular; conditions: read-out: Stability
[23] = Stability in mouse serum assessed as compound hydrolysis after 24 hrs by LC/MS analysis; type: ADME, cell-free; conditions: read-out: Drug degradation
[24] = test system: Trypanosoma brucei brucei; assay: Anti-parasitic activity against bloodstream trypomastigote stage of wild-type Trypanosoma brucei brucei Lister 427 after 48 hrs in presence of 5 mM glycerol by resazurin-based assay; type: functional, organism-based; conditions: Lister 427, 48 h
[25] = test system: Trypanosoma congolense; assay: Potency index, ratio of diminazene EC50 to test compound EC50 for anti-parasitic activity against bloodstream form of Trypanosoma congolense IL3000; type: functional
[26] = test system: Trypanosoma brucei rhodesiense; assay: as §1, with “reduction in parasitemia” for “cured mouse”, “infection and measured 3 days hrs after last treatment on day 10 (reference value: 0%)” for “infection”; type: functional; design: scale not given: the % may be the effect or the level left
[27] = Selectivity index, ratio of CC50 for HFF cells to EC50 for bloodstream trypomastigote stage of wild-type Trypanosoma brucei brucei Lister 427; type: toxicity; conditions: human, read-out: Ratio CC50/EC50
[28] = test system: Trypanosoma congolense; assay: Anti-parasitic activity against bloodstream form of Trypanosoma congolense IL3000 after 48 hrs by resazurin-based assay; type: functional, organism-based; conditions: IL3000, 48 h
[29] = test system: Trypanosoma brucei brucei; assay: Anti-parasitic activity against bloodstream trypomastigote stage of Trypanosoma brucei brucei with AQP2/3-dd knock out after 48 hrs by resazurin-based assay; type: functional, organism-based
[30] = Competitive inhibition of recombinant N-terminal His6 tagged SUMO-fused Trypanosoma brucei brucei TC221 TAO MTS deletion mutant expressed in Escherichia coli FN102 preincubated for 2 mins followed by ubiquinol-1 addition measured over 2 mins by Lineweaver-Burk plot analysis
[31] = Drug metabolism in human liver S9 fraction assessed as CYP450 mediated compound hydrolysis by measuring parent compound remaining at 5 uM measured immediately in presence of NADPH by RP-HPLC analysis; type: ADME, subcellular; conditions: read-out: Stability
[32] = test system: Trypanosoma brucei brucei; assay: Anti-parasitic activity against bloodstream trypomastigote stage of Trypanosoma brucei brucei with AQP triple knock out after 48 hrs by resazurin-based assay; type: functional, organism-based
[33] = Drug metabolism in human liver S9 fraction assessed as UGT mediated compound hydrolysis by measuring parent compound remaining at 5 uM measured after 120 mins in presence of UDPGA by RP-HPLC analysis; type: ADME, subcellular; conditions: read-out: Stability
[34] = Resistance factor, ratio of EC50 for bloodstream trypomastigote stage of pentamidine/diminazene/melaminophenyl arsenical resistant Trypanosoma brucei B48 to EC50 for bloodstream trypomastigote stage of wild-type Trypanosoma brucei brucei Lister 427; type: functional
[35] = test system: Trypanosoma brucei brucei; assay: Resistance factor, ratio of EC50 for bloodstream trypomastigote stage of wild-type Trypanosoma brucei brucei Lister 427 in presence of 5 mM glycerol to EC50 for bloodstream trypomastigote stage of wild-type Trypanosoma brucei brucei Lister 427; type: functional
[36] = test system: Trypanosoma brucei rhodesiense; assay: In vivo anti-parasitic activity against luciferase tagged Trypanosoma brucei rhodesiense STIB900 infected in NMRI mouse assessed as reduction in parasitemia at 10 mg/kg, ip for 4 consecutive days starting at day 3 post infection and measured after last treatment on day 7 (reference value: 0%); type: functional; design: scale not given: the % may be the effect or the level left
[37] = Drug metabolism in human liver microsomes assessed as CYP450 mediated compound hydrolysis by measuring parent compound remaining at 5 uM measured immediately in presence of NADPH by RP-HPLC analysis; type: ADME; conditions: read-out: Stability
[38] = Selectivity index, ratio of CC50 for HEK cells to EC50 for bloodstream form of Trypanosoma congolense IL3000; type: toxicity; conditions: human, read-out: Ratio CC50/EC50
[39] = Cytotoxicity against HEK cells assessed as reduction in cell viability after 30 hrs by resazurin-based assay; conditions: human
[40] = Non-competitive inhibition of Trypanosoma brucei brucei TC221 TAO expressed in Escherichia coli FN102 assessed as reduction in ubiquinoldependent oxygen consumption by spectrophotometry
[41] = test system: Trypanosoma brucei brucei; assay: Anti-parasitic activity against bloodstream trypomastigote stage of wild-type Trypanosoma brucei brucei Lister 427; type: functional
[42] = Stability in horse serum assessed as compound receovery after 24 hrs by LC/MS analysis; type: ADME, cell-free, Equus caballus; conditions: read-out: Drug recovery
[43] = Stability in horse serum assessed as compound hydrolysis after 2 hrs by LC/MS analysis; type: ADME, cell-free, Equus caballus; conditions: read-out: Drug degradation
[44] = Stability in mouse serum assessed as compound hydrolysis after 2 hrs by LC/MS analysis; type: ADME, cell-free; conditions: read-out: Drug degradation
[45] = Half life in mouse serum by LC/MS analysis; type: ADME, cell-free

Structure (SMILES) | Ratio EC50 [1] | Ratio EC50 [2] | CC50 at 30 h [3] [nM] | pEC50 [5] | pIC50 [8] | selectivity ratio [11] | pEC50 [17] | Ratio EC50 [20] | metabolised at 24 h [23] [%] | pEC50 [24] | Ratio EC50 [25] | selectivity ratio [27] | pEC50 [28] | pEC50 [29] | pEC50 [32] | Ratio EC50 [34] | Ratio EC50 [35] | also measured
Cc1cc(O)cc(O)c1C(=O)OCCCCCCCCCCCCCC[P+](c1ccccc1)(c1ccccc1)c1ccccc1.[Br-] | 0.51 | 0.89 | > 200000 | 8.80 | 7.06 | > 40000 | 8.72 | 5 - 40 | < 20 | 8.85 | 5 - 40 | > 125000 | 8.30 | 9.10 | 8.85 | 1.2 | 0.92 | remaining at 0.5 h, 5 µM [4]: 66.9%; remaining at 0 min, 5 µM [6]: 100%; remaining at 1 h, 5 µM [7]: 58.2%; remaining at 0.25 h, 5 µM [9]: 92.3%; remaining at 0.5 h, 5 µM [10]: 101%; metabolised at 24 h [12]: < 30%; remaining at 0.25 h, 5 µM [13]: 93.4%; remaining at 1 h, 5 µM [14]: 93.4%; remaining at 2 h, 5 µM [15]: 93.1%; remaining at 0.25 h, 5 µM [16]: 79.4%; Activity [18]: inactive; remaining at 0.5 h, 5 µM [19]: 86%; remaining at 1 h, 5 µM [21]: 96.4%; remaining at 2 h, 5 µM [22]: 94.1%; Activity [26]: 27.9%; pKi [30]: 6.06; remaining at 0 min, 5 µM [31]: 100%; remaining at 2 h, 5 µM [33]: 52.6%; Activity [36]: 94.7%; remaining at 0 min, 5 µM [37]: 100%
O=C(OCCCCCCCCCCCCBr)c1ccc(O)cc1O | 0.69 | 0.32 | – | – | 7.76 | – | – | – | – | 5.21 | – | > 27 | – | 5.00 | 5.33 | 1.03 | 0.42 | selectivity ratio [38]: > 7.7; CC50 at 30 h [39]: > 400000 nM
C/C(=C\Cc1c(O)c(Cl)c(C)c(C=O)c1O)CC/C=C(\C)[C@@H]1CC(=O)C(C)(C)O1 [ASCOFURANONE] | – | – | – | – | 8.70 | – | – | – | – | – | – | – | – | – | – | – | – | pKi [40]: 8.62; MIC [41]: 250 µM (≈ 105 µg/mL); MIC [24]: 30 µM
COc1ccc([C@@H]2Sc3ccccc3N(CCN(C)C)C(=O)[C@@H]2OC(C)=O)cc1 [DILTIAZEM] | – | – | – | – | – | – | – | – | – | – | – | – | – | – | – | – | – | remaining at 24 h [42]: 1%
Cc1cc(O)ccc1C(=O)OCCCCCCCCCCCCCC[P+](c1ccccc1)(c1ccccc1)c1ccccc1.[Br-] | 0.92 | 2 | > 200000 | 8.62 | 7.09 | > 5130 | 8.66 | 5 - 40 | > 99 | 8.49 | 5 - 40 | > 83000 | 7.41 | 8.66 | 8.30 | 0.9 | 1.32 | metabolised at 2 h [43]: < 20%; metabolised at 2 h [44]: 70%; half-life [45]: 1 h
